These results are taken from patent US20040265984A1, “Methods of growing crystals of free, antibiotic-complexed, and substrate-complexed large ribosomal subunits, and methods of rationally designing or identifying antibiotics using structure coordinate data derived from such crystals” (priority 2001, published 2004).

{Puro} = puromycin of the RNA

The subject of data set [1] is D50S. Description: X-ray crystallography of D50S-ligand complex crystals (co-crystallization or soaking). The format is binding, D. radiodurans. To be noted: result in words, from complex crystals and electron-density maps. The procedure: Growth of D50S crystals: D. radiodurans LRSs were isolated, and crystals of D50S belonging to the space-group […] were grown as described in Example 1, above. Co-crystallization of D50S with antibiotics was carried out in the presence of 0.8-3.5 mM of the antibiotics chloramphenicol, clindamycin, erythromycin, and roxithromycin. Co-crystallization of D50S with clarithromycin was achieved by soaking D50S crystals in solutions containing 0.01 mM of this antibiotic.
X-ray diffraction: Data were collected at 85 K from shock-frozen crystals with a bright SR beam at ID19 at APS/ANL, ID14/2 and 4 at ESRF/EMBL, and at BW6 at DESY. Data were recorded on MAR345, Quantum 4, or APS-CCD detectors and processed with HKL2000 (Otwinowski, Z. and Minor, W., 1997. Macromolecular Crystallography, Pt A 276, 307).
Placements and refinement: The 3.1 Å structure of D50S described in Example 1, above, was refined against the structure factor amplitudes of each of the antibiotic-D50S complexes, using rigid body refinement as implemented in CNS (Brunger, A. T. et al., 1998. Acta Crystallographica Section D-Biological Crystallography 54, 905). SigmaA-weighted difference maps were used for the initial manual placement of the antibiotics. Each of the D50S-antibiotic models was further refined using REFMAC software (Murshudov, G. N. et al., 1999. Acta Cryst section D55, 247). For the calculation of free R-factor a subset of reflections (10% of the data) was omitted from the refinement. The structure coordinates of the antibiotic-D50S complexes were submitted to the PDB under accession numbers 1JZX, 1JZY, 1JZZ, 1K00, and 1K01.
Crystallization: Crystals of the large ribosomal subunit of D. radiodurans (D50S) were generated as described in Example 1 above (Harms J. et al., 2001. Cell 107, 679-688; Schlüenzen et al., 2001. Nature 413, 814-821). […]
X-ray diffraction: Data were collected at 85 K from shock-frozen crystals using a synchrotron radiation beam at ID 19 at Argonne Photon Source/Argonne National Laboratory (APS/ANL) and ID14/2, ID14/4 at the European Synchrotron Radiation Facility/European Molecular Biology Laboratory (ESRF/EMBL). Data were recorded on Quantum 4 or APS-CCD detectors and processed with HKL2000 (Otwinowski, Z. and Minor, W., 1997. Macromolecular Crystallography Pt A. 276, 307) and the CCP4 suite (Bailey, S., 1994. Acta Cryst D. 50, 760).
Localization and refinement: The 3.1 Å structure of D50S (PDB accession code 1LNR) was refined against the structure factor amplitudes of each of the two D50S-antibiotic complexes, using rigid body refinement as implemented in CNS (Brunger, A. T. et al., 1998. Acta Crystallographica Section D-Biological Crystallography 54, 905-921). […] The positions of the antibiotics were readily determined from sigmaA-weighted difference maps. […]

Data set [2] has as its system Heliobacter pylori. To be noted: Heliobacter pylori (U/U); cited from earlier work.
The test system of data set [3] is E. coli. To be noted: U/U at 23S rRNA positions C803DR/C1773DR; cited from earlier work.
The test system of data set [4] is Haemophilus influenzae. To be noted: Haemophilus influenzae (A/C); cited from earlier work.
The test system of data set [5] is ribosomes. To be noted: cited from earlier work; for binding to the ribosome: result in words.
For data set [6], the system named is ribosomes. The note with it: cited from earlier work.

In the case of “ACCP: puromycin-coupled RNA molecule having the sequence 5′-ACC-Puro; substrate analog mimicking the CCA 3′ end of the tRNA acceptor stem (RNA, 3' {Puro}, backbone not given here)”, in data set [1], the “binding to D50S” value is given as “bind well”.
As for `CC[C@H]1OC(=O)[C@H](C)C(=O)[C@H](C)[C@@H](O[C@@H]2O[C@H](C)C[C@H](N(C)C)[C@H]2O)[C@](C)(OCC=Cc2cnc3ccccc3c2)C[C@@H](C)C(=O)[C@H](C)[C@H]2NC(=O)O[C@@]21C` [ABT-773], the “susceptibility to ABT-773” value in data set [2], in data set [3] and in data set [4] was “equally susceptible” in each case. The “binding to D50S” value in data set [1] is given as “high affinity”.
`CC[C@H]1OC(=O)[C@H](C)[C@@H](O[C@H]2C[C@@](C)(OC)[C@@H](O)[C@H](C)O2)[C@H](C)[C@@H](O[C@@H]2O[C@H](C)C[C@H](N(C)C)[C@H]2O)[C@](C)(O)C[C@@H](C)CN(C)[C@H](C)[C@@H](O)[C@]1(C)O` [azithromycin, 9-deoxy-9A-methyl-9A-aza-9A-homoerythromycin]: the “binding to D50S” value in data set [1] was “high affinity”.
`COc1ccc(C[C@H](N)C(=O)N[C@H]2[C@@H](O)[C@H](n3cnc4c(N(C)C)ncnc43)O[C@@H]2CO)cc1` [Puromycin]: in data set [5], the “binding to the ribosome” value is listed as “binds weakly”.
Take `CSC[S@+]([O-])C[C@H](CO)NC(=O)/C=C/c1c(C)[nH]c(=O)[nH]c1=O` [sparsomycin]: the “binding to the ribosome” value in data set [5] is listed as “weak binding”. Moreover, in data set [1], the “binding to D50S” value is “almost quantitative binding”.
Regarding `CC[C@H]1OC(=O)[C@H](C)[C@@H](O[C@H]2C[C@@](C)(OC)[C@@H](O)[C@H](C)O2)[C@H](C)[C@@H](O[C@@H]2O[C@H](C)C[C@H](N(C)C)[C@H]2O)[C@](C)(O)C[C@@H](C)C(=O)[C@H](C)[C@@H](O)[C@]1(C)O` [erythromycin], the “length of peptides produced by erythromycin-bound ribosomes” value in data set [6] is “up to 8 residues”.
For the molecule `CC[C@H]1OC(=O)[C@H](C)C(=O)[C@H](C)[C@@H](O[C@@H]2O[C@H](C)C[C@H](N(C)C)[C@H]2O)[C@](C)(OC)C[C@@H](C)C(=O)[C@H](C)[C@@H](O)[C@]1(C)O` [RU56006], in data set [5] (compared with erythromycin), the Kd result is listed as “same order of magnitude as that of erythromycin”.
